“Also recorded” adds a separate entry of the source.
Tests used:
[1] = tested on: IFN-g production in human whole blood; format: cell-based
[2] = tested on: IL-2R on T cells in human whole blood; format: cell-based
human PBMCs [3] = format: cell-based
[4] = tested on: IL-2 production in human whole blood
AT-EAE model = tested on: AT-EAE model; parameters: species or system Lewis rats; conditions: rat, in vivo, sc
human Kv1.3 channel = human Kv1.3 channel (Homo sapiens, UniProt P22001); format: cell-based
Sequence of human Kv1.3 channel (P22001 whole entry): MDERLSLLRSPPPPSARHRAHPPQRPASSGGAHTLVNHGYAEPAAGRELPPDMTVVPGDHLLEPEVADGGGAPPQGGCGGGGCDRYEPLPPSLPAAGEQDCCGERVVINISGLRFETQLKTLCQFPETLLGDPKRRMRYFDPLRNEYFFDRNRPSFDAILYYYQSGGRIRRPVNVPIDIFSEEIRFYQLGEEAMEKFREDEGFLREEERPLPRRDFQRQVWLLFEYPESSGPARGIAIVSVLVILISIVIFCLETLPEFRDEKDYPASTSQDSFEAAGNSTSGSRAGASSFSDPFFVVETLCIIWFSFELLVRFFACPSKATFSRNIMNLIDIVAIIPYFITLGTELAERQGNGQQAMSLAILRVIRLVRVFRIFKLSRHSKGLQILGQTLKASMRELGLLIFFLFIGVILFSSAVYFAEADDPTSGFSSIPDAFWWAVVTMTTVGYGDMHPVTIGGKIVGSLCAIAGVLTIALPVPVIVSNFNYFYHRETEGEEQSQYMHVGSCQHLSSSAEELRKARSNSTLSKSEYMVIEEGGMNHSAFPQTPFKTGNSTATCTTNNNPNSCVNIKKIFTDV

[5] = rat, in vivo, iv
human PBMCs [6] = format: cell-based; remark: listed apart in the source
[7] = tested on: CD40L on T cells in human whole blood; format: cell-based
human PBMCs [8] = format: cell-based; remark: listed apart in the source
[9] = molecular target: Kv1.3 transfected HEK 293 cells (Homo sapiens, UniProt P22001); test: Whole cell immunoassay (ELISA) on fixed HEK 293 cells overexpressing Kv1.3; format: binding
Sequence of Kv1.3 transfected HEK 293 cells (P22001 whole entry): as above
Experimental: Our peptibody reagent can be a useful and convenient tool for monitoring Kv1.3 channel expression in patients and have utility in diagnostic applications. The procedure shown in FIG. 34A and FIG. 34B follows.
FIG. 34A. A whole cell immunoassay was performed to show binding of intact Fc-L10-ShK[1-35] to Kv1.3 transfected HEK 293 cells (BioFocus plc, Cambridge, UK). Parent HEK 293 cells or HEK Kv1.3 cells were plated at 3×10e4 cells/well in poly-D-Lysine coated ninety-six well plates (#35-4461; Becton-Dickinson, Bedford, Mass.). Cells were fixed with formalin (Sigma HT50-1-1 Formalin solution, diluted 1:1 with PBS/0.5% BSA before use) by removing cell growth medium, adding 0.2 ml/well formalin solution and incubating at room temperature for 25 minutes and then washing one time with 100 μl/well of PBS/0.5% BSA. Wells were blocked by addition of 0.3 ml/well of BSA blocker (50-61-00; KPL 10% BSA Diluent/Blocking Solution, diluted 1:1 with PBS; KPL, Gaithersburg, Md.) followed by incubation at room temperature, with shaking, for 3 hr. Plates were washed 2 times with 1×KP Wash Buffer (50-63-00; KPL). […] Absorbance was read at 450 nm on a Molecular Devices SpectroMax 340 (Sunnyvale, Calif.).
FIG. 34B. […] Absorbances were read at 405 nm after stopping reactions by addition of 0.1 ml/well of 1% SDS.

[10] = molecular target: HEK 293 cells overexpressing human Kv1.3 (Homo sapiens, UniProt P22001); test: Immunohistochemistry analysis of binding to HEK 293 cells overexpressing human Kv1.3; conditions: 5 μg/ml
Sequence of HEK 293 cells overexpressing human Kv1.3 (P22001 whole entry): as above
Experimental: Immunohistochemistry analysis of Fc-L10-ShK[1-35] binding to HEK 293 cells overexpressing human Kv1.3. HEK 293 cells overexpressing human Kv1.3 (HEK Kv1.3) were obtained from BioFocus plc (Cambridge, UK) and maintained per manufacturer's recommendation. The parental HEK 293 cell line was used as a control. Cells were plated on Poly-D-Lysine 24 well plates (#35-4414; Becton-Dickinson, Bedford, Mass.) and allowed to grow to approximately 70% confluence. HEK KV1.3 were plated at 0.5×10e5 cells/well in 1 ml/well of medium. HEK 293 cells were plated at a density of 1.5×10e5 cells/well in 1 ml/well of medium. Before staining, cells were fixed with formalin (Sigma HT50-1-1 Formalin solution, diluted 1:1 with PBS/0.5% BSA before use) by removing cell growth medium, adding 0.2 ml/well formalin solution and incubating at room temperature for ten minutes. Cells were stained by incubating with 0.2 ml/well of 5 μg/ml Fc-L10-ShK[1-35] in PBS/BSA for 30′ at room temperature. Fc-L10-ShK[1-35] was aspirated and then the cells were washed one time with PBS/0.5% BSA. Detection antibody (Goat F(ab)2 anti-human IgG-phycoerythrin; Southern Biotech Associates, Birmingham, Ala.) was added to the wells at 5 μg/ml in PBS/0.5% BSA and incubated for 30′ at room temperature. Wash cells once with PBS/0.5% BSA and examine using confocal microscopy (LSM 510 Meta Confocal Microscope; Carl Zeiss AG, Germany). […]

Compound | thapsigargin-induced IFN-g production (in words) [1] | thapsigargin-induced upregulation of the IL-2R on T cells (in words) [2] | inhibition of IFNg production (human PBMCs [3]) | thapsigargin-induced IL-2 production (in words) [4] | average body weight lost (AT-EAE model) | disease severity and survival (in words) (AT-EAE model) | onset of disease (AT-EAE model) | block of human Kv1.3 current (in words) (human Kv1.3 channel) | time with significant suppression of Kv1.3 current (<70 POC) by 5% serum Test solutions [5] | inhibition of IFNγ production (human PBMCs [6]) | thapsigargin-induced upregulation of CD40L on T cells (in words) [7] | inhibition of T cell proliferation (human PBMCs [8]) | binding to fixed cells that overexpress Kv1.3 [9] | staining of HEK 293 cells stably transfected with human Kv1.3 [10]
CC[C@H](C)[C@@H]1NC(=O)[C@@H](NC(=O)[C@H](CO)NC(=O)[C@@H](N)CCCNC(=N)N)CSSC[C@@H](C(=O)O)NC(=O)[C@H]([C@@H](C)O)NC(=O)CNC(=O)[C@@H]2CSSC[C@@H]3NC(=O)[C@H](CCC(N)=O)NC(=O)[C@H](Cc4ccccc4)NC(=O)[C@H](C)NC(=O)[C@H]([C@@H](C)O)NC(=O)[C@H](CSSC[C@H](NC(=O)[C@H](Cc4ccccc4)NC(=O)[C@H](CO)NC(=O)[C@H](CC(C)C)NC(=O)[C@H](CCCNC(=N)N)NC(=O)[C@H](Cc4ccc(O)cc4)NC(=O)[C@H](CCCCN)NC(=O)[C@H](CCSC)NC(=O)[C@H](CO)NC(=O)[C@H](Cc4cnc[nH]4)NC(=O)[C@H](CCCCN)NC3=O)C(=O)N[C@@H](CCCNC(=N)N)C(=O)N[C@@H](CCCCN)C(=O)N[C@@H]([C@@H](C)O)C(=O)N2)NC(=O)[C@H](CCCNC(=N)N)NC(=O)[C@H](CO)NC(=O)[C@H](CCCCN)NC(=O)[C@@H]2CCCN2C(=O)[C@H]([C@@H](C)CC)NC(=O)[C@H]([C@@H](C)O)NC(=O)[C@H](CC(=O)O)NC1=O [ShK, reference compound] | suppressed | suppressed | only partial inhibition | suppressed | 30 g | developed severe disease and died | 4 days | potently block Kv1.3 | ≤ 1 h | only a partial inhibition | suppressed |  |  | 
Fc-L10-ShK[1-35]: Fc region of human IgG1 fused via L10 linker to Kv1.3 inhibitor peptide ShK[1-35] |  | suppressed | nearly complete inhibition |  |  |  |  |  |  | complete inhibition of the response | suppressed | blocked T cell proliferation; also recorded: potently inhibits proliferation of T cells in a dose-dependent manner | dose-dependent increase in response; also recorded: high affinity binding to its target | stains HEK 293 cells stably transfected with human Kv1.3
